According to patent US20240166610A1, “SUBSTITUTED PYRIDAZINE PHENOL DERIVATIVES” (MEDSHINE DISCOVERY INC., priority 2021, published 2024):
Counter-ions that a name gives are not always drawn.

Tests used:
[1] = target: T1, NLRP3 (Homo sapiens, UniProt Q96P20); assay: Detecting IC50 of NLRP3 inhibitor by using THP-1 cells (IL-1β secretion, CBA); format: cell-based; conditions: PMA/LPS/ATP, IL-1β in supernatant
T1 construct: This experiment utilized the human-derived monocyte cell line THP1; endogenous in cells; host or cells: THP-1 (human monocyte line, PMA-differentiated into macrophages)
T1 sequence (Q96P20 whole entry): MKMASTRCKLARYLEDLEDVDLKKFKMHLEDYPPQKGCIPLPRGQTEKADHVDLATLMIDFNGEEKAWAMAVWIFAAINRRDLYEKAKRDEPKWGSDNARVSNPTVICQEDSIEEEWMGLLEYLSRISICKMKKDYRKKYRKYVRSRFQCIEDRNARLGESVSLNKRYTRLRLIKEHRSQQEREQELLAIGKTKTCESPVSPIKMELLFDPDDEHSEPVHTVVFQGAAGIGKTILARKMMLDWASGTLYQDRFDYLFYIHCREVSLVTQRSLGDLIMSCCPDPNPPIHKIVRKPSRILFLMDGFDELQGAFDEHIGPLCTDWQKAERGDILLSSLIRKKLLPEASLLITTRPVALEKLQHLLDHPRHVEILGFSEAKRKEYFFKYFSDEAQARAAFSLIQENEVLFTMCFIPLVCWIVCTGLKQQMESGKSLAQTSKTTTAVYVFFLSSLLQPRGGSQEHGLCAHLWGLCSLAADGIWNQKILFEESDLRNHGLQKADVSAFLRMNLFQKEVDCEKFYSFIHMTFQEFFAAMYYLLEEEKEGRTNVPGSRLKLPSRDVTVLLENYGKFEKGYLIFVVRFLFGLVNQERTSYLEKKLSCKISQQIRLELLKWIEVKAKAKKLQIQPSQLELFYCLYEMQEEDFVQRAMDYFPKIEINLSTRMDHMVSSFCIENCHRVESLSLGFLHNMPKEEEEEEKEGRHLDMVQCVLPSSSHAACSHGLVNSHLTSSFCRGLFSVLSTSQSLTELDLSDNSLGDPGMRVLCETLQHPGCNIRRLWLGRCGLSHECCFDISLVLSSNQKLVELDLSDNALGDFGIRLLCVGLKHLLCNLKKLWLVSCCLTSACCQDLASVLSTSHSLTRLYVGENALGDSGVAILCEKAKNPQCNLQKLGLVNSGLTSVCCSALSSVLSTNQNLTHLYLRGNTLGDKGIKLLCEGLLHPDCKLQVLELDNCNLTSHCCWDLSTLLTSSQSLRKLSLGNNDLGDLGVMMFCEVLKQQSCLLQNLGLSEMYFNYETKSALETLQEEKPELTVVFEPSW
Description: 1. Experimental principle: This experiment utilized the human-derived monocyte cell line THP1 to investigate the inhibitory activity (IC50) of NLRP3 inhibitor on cellular IL-1β secretion. PMA (12-O-tetradecanoylphorbol-13-acetate) was used to differentiate the monocyte cell line THP1 into mature macrophages, which were then stimulated using LPS (lipopolysaccharide), an agonist of the Toll-like receptor TLR4, to activate the transcriptional activity of the inflammasome NLRP3 and the expression of pro-IL-1β, a precursor of IL-1β. At this time, the inhibitor of NLRP3 was added, and then ATP (adenosine triphosphate) was added to further mature and activate NLRP3, and activate downstream caspase-1. Activated caspase-1 may enzymatically process pro-IL-1β into mature IL-1β that can be secreted.
(1) The density of THP1 cells was adjusted to 5×10^5 cells/mL, then PMA was added, and the final concentration was adjusted to 100 ng/mL. The cells were inoculated 200 μL/well into a 96-well flat-bottom plate, stimulated overnight (<16 hours if possible) at 37° C. and 5% CO2.
(2) The supernatant was discarded the next day, and then the cells were carefully washed twice with Dulbecco's phosphate-buffered saline (200 μL/time).
(3) The cells were stimulated with LPS at a final concentration of 100 ng/mL, added to a 96-well plate (200 μL/well), and cultured at 37° C. and 5% CO2 for 3 hours.
The cells were incubated for 1 hour in a 37° C., 5% CO2 incubator.
(5) ATP was added to each well with a final concentration of 5 mM, and cultured overnight (>18 hours) at 37° C. and 5% CO2.
(6) On the third day, 5 μL of the supernatant was taken, diluted 10-fold, and the content of IL-1β in the supernatant was detected by cytometric bead array (CBA).

[2] = In vivo pharmacokinetic evaluation in CD-1 mice; conditions: male, mouse, plasma, dose IV/PO 1/2 mg/kg; for half-life / clearance / Vd: 1 mg/kg; for half-life: IV, read-out: Half-life T1/2 (IV) (converted); for clearance: read-out: Clearance rate CL; for Vd: read-out: Tissue distribution Vdss; for AUC(0-t): PO, read-out: Area under drug-time curve AUC0-last PO; for bioavailability: read-out: Bioavailability F; for Cmax: read-out: Peak concentration Cmax
Description: Experimental Example 2: In Vivo Pharmacokinetic Evaluation of Compounds in CD-1 Mice
Experimental purpose: To test the in vivo pharmacokinetics of the compounds in CD-1 mice
CD-1 mice (male, 7 to 9 weeks old)
The rodent pharmacokinetic characteristics after intravenous injection and oral administration of the compounds were tested using a standard protocol. The candidate compound was prepared as a clear solution during the experiment and given to mice for single intravenous injection and oral administration. The vehicle for intravenous injection and oral administration was a mixed vehicle composed of 5% dimethyl sulfoxide and 95% 5% solutol. Four male CD-1 mice were used in this project. Two mice were administered intravenously (IV), and plasma samples were collected at 0 hours (before administration) and 0.0833, 0.25, 0.5, 1, 2, 4, 8, and 24 hours after administration. The other two mice were administered orally by gavage (PO), and plasma samples were collected at 0 hours (before administration) and 0.25, 0.5, 1, 2, 4, 8, and 24 hours after administration. The plasma concentration was quantitatively analyzed by LC-MS/MS analysis method, and the pharmacokinetic parameters were calculated, such as peak concentration (Cmax), clearance rate (CL), half-life (T1/2), […] (Vdss), area under drug-time curve (AUC0-last), bioavailability (F).

[3] = In vivo pharmacokinetic evaluation in SD rats; conditions: male, rat, plasma, dose IV/PO 1/2 mg/kg; for half-life / clearance / Vd: 1 mg/kg; for half-life: IV, read-out: Half-life T1/2 (IV) (converted); for clearance: read-out: Clearance rate CL; for Vd: read-out: Tissue distribution Vdss; for AUC(0-t): PO, read-out: Area under drug-time curve AUC0-last PO; for bioavailability: read-out: Bioavailability F; for Cmax: read-out: Peak concentration Cmax
Description: Experimental Example 3: In Vivo Pharmacokinetic Evaluation of Compounds in SD Rats
Experimental Purpose: To Test the In Vivo Pharmacokinetics of the Compounds in SD Rats
The rodent pharmacokinetic characteristics after intravenous injection and oral administration of the compounds were tested using a standard protocol. The candidate compound was prepared as a clear solution during the experiment and given to SD rats for single intravenous injection and oral administration. The vehicle for intravenous injection and oral administration was a mixed vehicle composed of 5% dimethyl sulfoxide and 95% 5% solutol. Four male SD rats were used in this project. Two SD rats were administered intravenously, and plasma samples were collected at 0.083, 0.25, 0.5, 1, 2, 4, 8, and 24 hours after administration. The other two SD rats were administered orally by gavage, and plasma samples were collected at 0.25, 0.5, 1, 2, 4, 8, and 24 hours after administration. The plasma concentration was quantitatively analyzed by LC-MS/MS analysis method, and the pharmacokinetic parameters were calculated, such as peak concentration (Cmaz), clearance rate (CL), half-life (T1/2), […] (Vdss), area under drug-time curve (AUC0-last), bioavailability (F).

Compound	IC50 [1]	further results
Cc1cc(N[C@@H]2CCCN(C)C2)nnc1-c1ccc(-c2ccc(F)cc2)cc1O [Compound 4]	–	half-life [2]: 25.7 h; clearance [2]: 0.795 mL/min/kg; Vd [2]: 1.72 L/kg; AUC(0-t) [2]: 54.3 µM·h; bioavailability [2]: 102%; Cmax [2]: 2900 nM
COC1CC(N2CCC[C@@H](Nc3cc(C)c(-c4ccc5sccc5c4O)nn3)C2)C1 (stereo partly shown) [Compound 49]	0.882 nM	–
Cc1cc(N[C@@H]2CCCN(C(=O)C3CC3)C2)nnc1-c1ccc2sccc2c1O [Compound 41]	6.87 nM	–
Cc1cc(N[C@@H]2CCCN(C3CCOCC3)C2)nnc1-c1ccc2sccc2c1O [Formate of compound 46]	0.289 nM	–
Cc1cc2c(O)c(-c3nnc(N[C@@H]4CCCN(C)C4)cc3C)ccc2s1 [Hydrochloride of compound 43]	1.76 nM	–
Cc1cc(N[C@@H]2CCCN(C(=O)CCN(C)C)C2)nnc1-c1ccc2sccc2c1O [Compound 51]	0.142 nM	–
Cc1cc(N[C@@H]2CCCN(C3CCOC3)C2)nnc1-c1ccc2sccc2c1O (stereo partly shown) [Formate of compound 42]	0.274 nM	half-life [3]: 1.72 h; clearance [3]: 6.08 mL/min/kg; Vd [3]: 0.837 L/kg; AUC(0-t) [3]: 9.15 µM·h; bioavailability [3]: 71.2%; Cmax [3]: 2100 nM
Cc1cc(N[C@@H]2CCCN(C(C)C)C2)nnc1-c1ccc2sccc2c1O [Compound 39]	0.09 nM	half-life [3]: 2.19 h; clearance [3]: 15.3 mL/min/kg; Vd [3]: 2.63 L/kg; AUC(0-t) [3]: 4.53 µM·h; bioavailability [3]: 85.1%; Cmax [3]: 573 nM
Cc1cc(N[C@@H]2CCCN(CC(N)=O)C2)nnc1-c1ccc2c(c1O)CCC2 [Compound 12b]	3.13 nM	–
CN1CCC[C@@H](Nc2ccc(-c3ccc4sccc4c3O)nn2)C1 [Hydrochloride of compound 74]	19.4 nM	–
Cc1c(N[C@@H]2CCCC[C@H]2O)nnc(-c2ccc3sccc3c2O)c1C [Hydrochloride of compound 73]	3.21 nM	–
Cc1cc(NC2CCCN(C3CC(O)C3)C2)nnc1-c1ccc2sccc2c1O (stereo not shown) [Compound 50]	1.94 nM	–
Cc1c(N[C@@H]2CCCN(C)C2)nnc(-c2ccc3sccc3c2O)c1C [Hydrochloride of compound 72]	0.318 nM	–
Cc1cc(N[C@@H]2CCCN(CC(C)(C)O)C2)nnc1-c1ccc2sccc2c1O [Formate of compound 47]	0.69 nM	–
Cc1cc(N[C@@H]2CCCN(C3CCC3)C2)nnc1-c1ccc2c(c1O)CCC2 [Hydrochloride of compound 19]	0.76 nM	–
Cc1cc2c(O)c(-c3nnc(N[C@@H]4CCCC[C@H]4O)cc3C)ccc2s1 [Hydrochloride of compound 67]	16.6 nM	–
Cc1cc(N[C@@H]2CCCN(C3COC3)C2)nnc1-c1ccc2sccc2c1O [Compound 26]	0.52 nM	half-life [2]: 1.75 h; clearance [2]: 16.6 mL/min/kg; Vd [2]: 1.71 L/kg; AUC(0-t) [2]: 3.9 µM·h; bioavailability [2]: 78.8%; Cmax [2]: 2070 nM; half-life [3]: 1.1 h; clearance [3]: 12.3 mL/min/kg; Vd [3]: 0.789 L/kg; AUC(0-t) [3]: 7.4 µM·h; bioavailability [3]: 108%; Cmax [3]: 2910 nM
Cc1cc(N[C@@H]2CCCN(C3COC3)C2)nnc1-c1ccc(C2CCC2)cc1O [Compound 25]	31.1 nM	–
Cc1cc(N[C@@H]2CCCN(CC3CC3)C2)nnc1-c1ccc2sccc2c1O [Compound 40]	0.19 nM	–
Cc1cc(N[C@@H]2CCCN(C)C2)nnc1-c1ccc2sc(F)c(F)c2c1O [Hydrochloride of compound 44b]	4.19 nM	–
Cc1cc2c(O)c(-c3nnc(N[C@H]4COC[C@@H]4O)cc3C)ccc2s1 [Hydrochloride of compound 66]	8.18 nM	–
Cc1cc(N[C@H]2CCCC[C@@H]2O)nnc1-c1ccc2sccc2c1O [Hydrochloride of compound 64]	21.1 nM	–

Now from value to molecule, other results behind:

IC50 [1]	Compound	further results
0.24 nM	Cc1cc(N[C@@H]2CCCN(C)C2)nnc1-c1ccc2c(c1O)CCC2 [Compound 2]	–
0.85 nM	Cc1cc2c(O)c(-c3nnc(NCCN(C)C)cc3C)ccc2s1 [Hydrochloride of compound 58]	–
0.078 nM	Cc1cc(N[C@@H]2CCCN(C)C2)nnc1-c1ccc2ccsc2c1O [Formate of compound 45]	–
2.09 nM	Cc1cc(N[C@@H]2CCCN(C3CCOCC3)C2)nnc1-c1ccc(C2CC2)cc1O [Compound 31]	–
0.076 nM	Cc1cc(N[C@@H]2CCCN(C)C2)nnc1-c1ccc2sc(F)cc2c1O [Hydrochloride of compound 44a]	–
3.39 nM	Cc1cc(N[C@@H]2CCCN(C3CCOC3)C2)nnc1-c1ccc(C2CC2)cc1O (stereo partly shown) [Compound 30]	–
6.07 nM	Cc1cc(Nc2cccnc2)nnc1-c1ccc2sccc2c1O [Hydrochloride of compound 65]	–
25.5 nM	Cc1cc(N[C@@H]2CCCN(C3COC3)C2)nnc1-c1ccc(C2=CCCC2)cc1O [Compound 27b]	–
41.5 nM	Cc1cc(N[C@@H]2CCCN(C3COC3)C2)nnc1-c1ccc(C2CCCC2)cc1O [Compound 27a]	–
18.7 nM	Cc1cc(N[C@@H]2CCCN(C3COC3)C2)nnc1-c1ccc2ccccc2c1O [Compound 28]	–
